# Measured values taken from patent US20160136229A1, “MATERIALS FOR POSITIVE CATHEPSIN B MODULATION AND METHODS OF USE FOR TREATING MILD COGNITIVE IMPAIRMENT (MCI), EARLY DEMENTIA, A-SYNUCLEINOPATHY, TRAUMATIC BRAIN INJURY, CARDIOMYOPATHY, EYE DISEASE AND SKIN DAMAGE” (University of North Carolina at Pembroke, priority 2013, published 2016).
# Experiments:
# PHF-tau = settings: cited from earlier work
# active cathepsin B = target: T1, active cathepsin B (Mus musculus, UniProt P10605); assay: Active cathepsin B staining in PADK-treated mice; assay type: in vivo; settings: 18 mg/kg/d×9 days, ip, vs vehicle
# T1 construct: from tissue; host or cells: brain and CNS regions of mice (PADK-treated mice, A53T transgenic and wild-type mice, C57BL/6 mice)
# Description: (§1) FIG. 4. Enhancing lysosome efficiency with the cathepsin B modulator PADK leads to reductions of multiple types of proteinopathy-related accumulation events. […] Age-matched wild-type mice (wt) and 9-10-month mutant human APP mice, a model of early dementia, treated with or without PADK were assessed for the 4-kDa Δβ peptide, the active form of cathepsin B (act CB), and other proteins in hippocampal samples (C). Similar treatment groups used another APP mouse model at 20-22 months of age to measure clearance of APP carboxyterminal fragments APP-αCTF and APP-βCTF (D). Rat hippocampal slice cultures from the untreated control group (con) and slices treated with submicromolar Δβ42 (early tauopathy model) in the absence or presence of PADK (5 μM for 4 days) were assessed for phosphorylated tau (pTau) and other proteins (E). For a model of early α-synucleinopathy, human A53T α-synuclein transgenic mice, at 7 months old, were studied with or without PADK treatment and assessed for human α-synuclein (α-syn) in TX-100 extracts of hippocampus and for other proteins in hippocampal homogenates (F). Plotted data (±SEM) were compared to neighboring vehicle groups by unpaired t-tests: *p=0.02, **p<0.01, ***p<0.001. APPswind and APP-PS1 mice are described in Butler et al., (2011), the entire content of which is hereby incorporated herein by reference.
# C57BL/6 mice = assay: Safety evaluation in PADK-injected C57BL/6 mice (synaptic markers, blood markers, behavior, organ histology); assay type: in vivo, mouse
# Description: FIG. 11. Safety evaluation of PADK found no evidence of toxicity. […] Alanine aminotransferase (ALT) and blood urea nitrogen (BUN) measures in plasma were also unchanged (E), indicating no effect on major organs. […] Organ sections were H+E stained and tissue integrity was evaluated by a pathologist that was blinded to the treatment groups (G).
# Additional safety evaluation tests with PADK were conducted. […] Blood markers were also unchanged, indicating no effect on major organs (FIG. 11E).
# Aβ peptide = Aβ peptide in hippocampal samples of mutant human APP mice; assay type: in vivo, mouse; settings: PADK-treated transgenic mice; correlated with augmented active CatB in brain
# Description: as §1, with “reference. […]” for “reference.”
# [1] = target: T2, 30-kDa active form of cathepsin B (Rattus norvegicus, UniProt P00787); assay: Active cathepsin B immunoblot in brain, eye and skin after oral dosing in rats; assay type: in vivo
# T2 construct: assessed by immunoblot to label the 30-kDa active form of cathepsin B; from tissue; host or cells: Fischer rat brain regions (A5); rat brain regions, eye and skin after oral dosing (A18); rat organotypic heart slice cultures (A17)
# Description: FIG. 10. The modulatory compound PADK up-regulates active cathepsin B in brain, eyes, and skin after oral dosing in rats. […] Four different brain regions were dissected and homogenates prepared, and equal protein aliquots were assessed by immunoblot to label the 30-kDa active form of cathepsin B (FC=frontal cortex).
# 11-month Fischer rats = assay: Exploratory habituation in novel field, Fischer rats; assay type: in vivo, rat; settings: 27 mg/kg daily, vs vehicle-treated rats
# Description: FIG. 2. The cathepsin B modulatory compound PADK improved learning and memory in 11-month Fischer rats, a model of mild cognitive impairment (MCI) and early dementia. A classic passive avoidance task to assess memory utilized a bi-sectioned apparatus consisting of a brightly-lit compartment and a dark compartment separated by a small door. […] In this figure, the female rats were injected daily with vehicle or 27 mg/kg PADK. Following each morning's injection, the rats were placed individually into the bright compartment and, after 10 s, the door was opened through which the rats typically entered immediately (3 min total time in apparatus/rat/day). Panel A: On the seventh injection day, latency time before entering the opened doorway was measured (pre-shock bars, mean±SEM), after which the door was closed to contain the animal in the dark compartment. A mild foot shock of 0.6 mA, 2 s duration, was then administered to the contained rat via the floor grid. Following the next day's injections, rats were again placed in the bright compartment and latency times measured after the door was opened (post-shock bars). […] Brains were removed after the behavior studies in order to assess cathepsin B levels.
# The animal groups were also tested across two days in the same novel field, and the number of grid crossings per 3-min period was measured to determine exploratory habituation.
# active cathepsin = target: T3, active cathepsin (Mus musculus, UniProt P10605); assay: Active cathepsin in brain samples of PADK-injected C57BL/6 mice; assay type: in vivo; settings: ip daily for 9 days
# T3 construct: from tissue; host or cells: brain and CNS regions of mice (PADK-treated mice, A53T transgenic and wild-type mice, C57BL/6 mice)
# [2] = low-level PADK, hippocampal slice model of protein accumulation
# [3] = C57BL/6 mice, ip daily for 9 days
# [4] = oral, peanut butter mixture, 15 mg/kg twice a day, 10 days
# T2 sequence (P00787 80-333 limits assumed): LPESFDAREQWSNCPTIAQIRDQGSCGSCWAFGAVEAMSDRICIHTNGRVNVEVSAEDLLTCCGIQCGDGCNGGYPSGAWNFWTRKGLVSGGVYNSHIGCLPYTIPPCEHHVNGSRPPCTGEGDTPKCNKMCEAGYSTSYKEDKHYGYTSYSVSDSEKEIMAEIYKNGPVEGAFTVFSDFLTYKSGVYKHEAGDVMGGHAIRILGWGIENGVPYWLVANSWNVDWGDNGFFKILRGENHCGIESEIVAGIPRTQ
# T1 sequence (P10605 80-333 limits assumed): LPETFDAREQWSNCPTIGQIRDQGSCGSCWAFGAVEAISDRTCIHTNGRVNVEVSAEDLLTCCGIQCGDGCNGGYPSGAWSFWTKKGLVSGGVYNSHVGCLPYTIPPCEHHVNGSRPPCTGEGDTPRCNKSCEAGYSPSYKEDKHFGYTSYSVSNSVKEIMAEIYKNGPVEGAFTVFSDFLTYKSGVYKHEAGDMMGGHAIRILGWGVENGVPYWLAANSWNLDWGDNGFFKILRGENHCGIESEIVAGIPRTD
# T3 sequence (P10605 80-333 limits assumed): as above
smiles,measurement,setting,value
"C[C@H](NC(=O)[C@H](Cc1ccccc1)NC(=O)OCc1ccccc1)C(=O)C=[N+]=[N-] [PADK, N-carbobenzyloxy-L-phenylalanyl-L-alanyl-diazomethylketone]","microtubule stability markers, transport function, and synaptic proteins",PHF-tau; following PADK-mediated tau clearance,recovery
same,PHF-tau,PHF-tau; [2],attenuates
same,synaptic decline,PHF-tau; [2],attenuates
same,tau aggregates and tau-related pathology,PHF-tau; when CatB activity was increased with PADK,Reduction
same,levels of active cathepsin B,active cathepsin B,increased levels of active cathepsin B
same,Alanine aminotransferase (ALT) in plasma,C57BL/6 mice; [3],unchanged
same,blood urea nitrogen (BUN) in plasma,C57BL/6 mice; [3],unchanged
same,synaptic markers,C57BL/6 mice; [3],unchanged
same,motor coordination rotarod test,C57BL/6 mice; prior behavioral tests,no adverse effects
same,spatial memory using conditioned place preference,C57BL/6 mice; prior behavioral tests,no adverse effects
same,"organ tissue integrity (H+E stained sections, blinded pathologist)",C57BL/6 mice; various organs,scored as normal
same,Aβ peptide level,Aβ peptide,reductions
same,BBB crossing after oral dosing,[1]; inferred from enhanced active cathepsin B in brain regions after 10 days of 15 mg PADK/kg/0.5 day,crossing the BBB
same,active cathepsin B in brain,[1]; [4],up-regulate
same,active cathepsin B in eye tissue,[1]; [4],significant increases
same,active cathepsin B in skin tissue,[1]; [4],significant increases
same,"grid crossings per 3-min period, day 1",11-month Fischer rats,No significant difference
same,"exploratory habituation, second day",11-month Fischer rats; P<0.05,improved habituation
same,active cathepsin in brain samples,active cathepsin,dose-dependent increase
